Test results published in US10457710B2, “Antimicrobial peptides, their variants and uses” (priority 2015, dated 2019).
Where a SMILES comes first, the peptide text is derived from it. [ ]: non-standard residue; d: D form.

Assays:
Assay type in all cases: cell-based
[1] = system: clinical strains of E. cloacae; assay: MIC, microdilution, clinical strains; settings: 0.02% BSA, 0.2% acetic acid
Method: (§1) Minimum inhibition concetrations (MICs) were determined against Escherichia coli (ATCC 25922), Staphylococcus aureus (ATCC 25923), Klebsiella pneumoniae (ATCC 10031) and Pseudomonas aeruginosa (ATCC 27853). Also clinical strains of E. coli, K. pneumoniae, E. cloacae, P. aeruginosa, Serratia marcescens, Proteus mirabilis, S. pneumoniae, Acinetobacter baumannii, A. johnsonii and S. aureus were used for MICs assays. Additionally, clinical strains of yeast including Candida albicans, C. glabrata, C. parapsilosis and C. quillermondiae were used. The susceptibility of these microorganisms to Chain peptides were determined using micro broth dilution assay. Colonies of the respective microorganism from Muller Hinton (MH) agar plates incubated overnight were suspended in MH broth media and final concentration of microorganism was adjusted to 5.0×10^5 cfu/ml. An aliquot of 10 μl of each Chain peptide, or gentamicin, tetracycline as reference antibiotics were added in differing concentrations along with 90 μl of bacterial suspension to 96 well polypropylene plates and incubated at 37° C. for 20 to 24 hours. Concentrations of Chain peptides and reference antibiotics ranged from 0.125 to 128 μg/ml and the MICs were recorded as the lowest concentration with no visual growth of bacteria. Similarly, antifungal MICs were tested in Potato dextrose broth.
(§2) Clinical strains of yeasts including Candida albicans, C. glabrata, C. parapsilosis and C. quillermondiae were also tested with the 12 Chain peptides. The minimum inhibitory concentration (MICs) varied between these peptides and are presented in Tables 4a, 4b, 4c and 5a, 5b, 5c. Peptides Chain 105, 201 and 308 are broad spectrum antimicrobials with MICs between 0.5-32 μg/ml against all the bacteria and yeasts tested, except Serratia marcescens and Proteus mirabilis, against which the MICs were between 64-128 μg/ml. Peptide Chain 306 has narrow spectrum activity against E. coli at 1 μg/ml and for the rest of the bacterial strains at >32 μg/ml (FIG. 10c).

[2] = system: clinical strains of E. coli; assay: MIC, microdilution, clinical strains; settings: microdilution, Muller Hinton broth-cation adjusted, 0.02% BSA, 0.2% acetic acid
Method: as §1, §2

[3] = system: clinical strains of K. pneumoniae; assay: MIC, microdilution, clinical strains; settings: 0.02% BSA, 0.2% acetic acid
Method: as §1, §2

[4] = system: clinical strains of P. aeruginosa; assay: MIC, microdilution, clinical strains; settings: 0.02% BSA, 0.2% acetic acid
Method: as §1, §2

[5] = system: clinical strains of Proteus mirabilis; assay: MIC, microdilution, clinical strains; settings: 0.02% BSA, 0.2% acetic acid
Method: as §1, §2

[6] = system: clinical strains of S. aureus; assay: MIC, microdilution, clinical strains; settings: 0.02% BSA, 0.2% acetic acid
Method: as §1, §2

[7] = system: clinical strains of S. pneumoniae; assay: MIC, microdilution, clinical strains; settings: 0.02% BSA, 0.2% acetic acid
Method: as §1, §2

[8] = system: clinical strains of Serratia marcescens; assay: MIC, microdilution, clinical strains; settings: 0.02% BSA, 0.2% acetic acid
Method: as §1, §2

C. glabrata = assay: MIC, clinical yeast strains
Method: as §1, §2

C. parapsilosis = assay: MIC, clinical yeast strains
Method: as §1, §2

Candida albicans = assay: MIC, clinical yeast strains
Method: as §1, §2

C. quillermondiae = assay: MIC, clinical yeast strains; set-up: Minimum inhibitory concentration: unit: μg/ml; settings: C. quillermondiae clinical yeast strain 1
Method: as §1, §2

For CC(C)C[C@@H](NC(=O)[C@H](N)CCCNC(=N)N)C(=O)N[C@H](CCCCN)C(=O)N[C@H](Cc1c[nH]c2ccccc12)C(=O)N[C@H](Cc1ccccc1)C(=O)N[C@H](Cc1c[nH]c2ccccc12)C(=O)N[C@H](CC(C)C)C(=O)N[C@H](Cc1ccccc1)C(=O)N[C@H](CCCNC(=N)N)C(=O)N[C@H](CCCCN)C(=O)N[C@H](CCCNC(=N)N)C(=O)O [Chain307D] (H-[dR][dL][dK][dW][dF][dW][dL][dF][dR][dK][dR]-OH), the Minimum inhibitory concentration ([1]; Enterobacter cloacae strain 1, Muller Hinton broth-cation adjusted) was 4, the Minimum inhibitory concentration ([1]; Enterobacter cloacae strain 2, Muller Hinton broth-cation adjusted) was 8 and the Minimum inhibitory concentration ([1]; Enterobacter cloacae strain 3, Muller Hinton broth-cation adjusted) was 4. It also gave a Minimum inhibitory concentration ([1]; Enterobacter cloacae strain 4, Muller Hinton broth-cation adjusted) of 4, a Minimum inhibitory concentration ([1]; Enterobacter cloacae strain 5, Muller Hinton broth-cation adjusted) of 4 and a Minimum inhibitory concentration ([2]; Escherichia coli strain 1) of 4. The Minimum inhibitory concentration ([2]; Escherichia coli strain 2) was 4, the Minimum inhibitory concentration ([2]; Escherichia coli strain 3) was 4 and the Minimum inhibitory concentration ([2]; Escherichia coli strain 4) was 2. For the same compound, the Minimum inhibitory concentration ([2]; Escherichia coli strain 5) was 4, the Minimum inhibitory concentration ([3]; Klebsiella pneumoniae strain 1, Muller Hinton broth-cation adjusted) was 8 and the Minimum inhibitory concentration ([3]; Klebsiella pneumoniae strain 2, Muller Hinton broth-cation adjusted) was 8. For the same compound, the Minimum inhibitory concentration ([3]; Klebsiella pneumoniae strain 3, Muller Hinton broth-cation adjusted) was 16, the Minimum inhibitory concentration ([3]; Klebsiella pneumoniae strain 4, Muller Hinton broth-cation adjusted) was 16 and the Minimum inhibitory concentration ([3]; Klebsiella pneumoniae strain 5, Muller Hinton broth-cation adjusted) was 4. The Minimum inhibitory concentration ([4]; Pseudomonas aeruginosa strain 1, Muller Hinton broth-cation adjusted) was 16, the Minimum inhibitory concentration ([4]; Pseudomonas aeruginosa strain 2, Muller Hinton broth-cation adjusted) was 16 and the Minimum inhibitory concentration ([4]; Pseudomonas aeruginosa strain 3, Muller Hinton broth-cation adjusted) was 16. It also gave a Minimum inhibitory concentration ([4]; Pseudomonas aeruginosa strain 4, Muller Hinton broth-cation adjusted) of 8, a Minimum inhibitory concentration ([4]; Pseudomonas aeruginosa strain 5, Muller Hinton broth-cation adjusted) of 8 and a Minimum inhibitory concentration ([5]; Proteus mirabilis strain 1, Muller Hinton broth-cation adjusted) of over 128. The Minimum inhibitory concentration ([5]; Proteus mirabilis strain 2, Muller Hinton broth-cation adjusted) was 128, the Minimum inhibitory concentration ([5]; Proteus mirabilis strain 3, Muller Hinton broth-cation adjusted) was 128 and the Minimum inhibitory concentration ([5]; Proteus mirabilis strain 4, Muller Hinton broth-cation adjusted) was over 128. The Minimum inhibitory concentration ([5]; Proteus mirabilis strain 5, Muller Hinton broth-cation adjusted) was over 128, the Minimum inhibitory concentration ([6]; Staphylococcus aureus strain 1, Muller Hinton broth-cation adjusted) was 2 and the Minimum inhibitory concentration ([6]; Staphylococcus aureus strain 2, Muller Hinton broth-cation adjusted) was 2. The Minimum inhibitory concentration ([6]; Staphylococcus aureus strain 3, Muller Hinton broth-cation adjusted) was 2, the Minimum inhibitory concentration ([6]; Staphylococcus aureus strain 4, Muller Hinton broth-cation adjusted) was 2 and the Minimum inhibitory concentration ([6]; Staphylococcus aureus strain 5, Muller Hinton broth-cation adjusted) was 2. It also gave a Minimum inhibitory concentration ([7]; Streptococcus pneumoniae strain 1, Muller Hinton broth-cation adjusted) of 4, a Minimum inhibitory concentration ([7]; Streptococcus pneumoniae strain 2, Muller Hinton broth-cation adjusted) of 4 and a Minimum inhibitory concentration ([7]; Streptococcus pneumoniae strain 3, Muller Hinton broth-cation adjusted) of 4. For the same compound, the Minimum inhibitory concentration ([7]; Streptococcus pneumoniae strain 4, Muller Hinton broth-cation adjusted) was 2, the Minimum inhibitory concentration ([7]; Streptococcus pneumoniae strain 5, Muller Hinton broth-cation adjusted) was 2 and the Minimum inhibitory concentration ([8]; Serratia marcescens strain 1, Muller Hinton broth-cation adjusted) was over 128. For the same compound, the Minimum inhibitory concentration ([8]; Serratia marcescens strain 2, Muller Hinton broth-cation adjusted) was over 128, the Minimum inhibitory concentration ([8]; Serratia marcescens strain 3, Muller Hinton broth-cation adjusted) was 128 and the Minimum inhibitory concentration ([8]; Serratia marcescens strain 4, Muller Hinton broth-cation adjusted) was over 128. It also gave a Minimum inhibitory concentration ([8]; Serratia marcescens strain 5, Muller Hinton broth-cation adjusted) of over 128, a Minimum inhibitory concentration (C. glabrata; C. glabrata clinical yeast strain 1) of 8 and a Minimum inhibitory concentration (C. glabrata; C. glabrata clinical yeast strain 2) of 16. It also gave a Minimum inhibitory concentration (C. glabrata; C. glabrata clinical yeast strain 3) of 8, a Minimum inhibitory concentration (C. glabrata; C. glabrata clinical yeast strain 4) of 16 and a Minimum inhibitory concentration (C. parapsilosis; C. parapsilosis clinical yeast strain 1) of 16. For the same compound, the Minimum inhibitory concentration (C. parapsilosis; C. parapsilosis clinical yeast strain 2) was 8, the Minimum inhibitory concentration (C. parapsilosis; C. parapsilosis clinical yeast strain 3) was 8 and the Minimum inhibitory concentration (C. parapsilosis; C. parapsilosis clinical yeast strain 4) was 8. It also gave a Minimum inhibitory concentration (Candida albicans; Candida albicans clinical yeast strain 1) of 16, a Minimum inhibitory concentration (Candida albicans; Candida albicans clinical yeast strain 2) of 16 and a Minimum inhibitory concentration (Candida albicans; Candida albicans clinical yeast strain 3) of 16. The Minimum inhibitory concentration (Candida albicans; Candida albicans clinical yeast strain 4) was 16, the Minimum inhibitory concentration (Candida albicans; Candida albicans clinical yeast strain 5) was 16 and the Minimum inhibitory concentration (C. quillermondiae) was 4.
